Results published in PMC9967645, “OAT3 Participates in Drug–Drug Interaction between Bentysrepinine and Entecavir through Interactions with M8—A Metabolite of Bentysrepinine—In Rats and Humans In Vitro” (Molecules, 2023).
Where two headings read alike, the source gives them in different places.

What was measured:
hOAT1 = target: T1, hOAT1 (Homo sapiens, UniProt Q4U2R8); assay: In vitro uptake assay in hOAT1-HEK293 cells; format: in vitro ADME; settings: Y101 2.0 µM, M8 10 µM; for inhibition of the uptake of ETV in hOAT1-HEK293 cells: ETV 10 µM; for substrate of hOAT1 (uptake in hOAT1-HEK293 vs mock-HEK293 cells): PAH 10 µM
T1 construct: expressed in transfected cells; host or cells: HEK293
T1 sequence (Q4U2R8 1-563): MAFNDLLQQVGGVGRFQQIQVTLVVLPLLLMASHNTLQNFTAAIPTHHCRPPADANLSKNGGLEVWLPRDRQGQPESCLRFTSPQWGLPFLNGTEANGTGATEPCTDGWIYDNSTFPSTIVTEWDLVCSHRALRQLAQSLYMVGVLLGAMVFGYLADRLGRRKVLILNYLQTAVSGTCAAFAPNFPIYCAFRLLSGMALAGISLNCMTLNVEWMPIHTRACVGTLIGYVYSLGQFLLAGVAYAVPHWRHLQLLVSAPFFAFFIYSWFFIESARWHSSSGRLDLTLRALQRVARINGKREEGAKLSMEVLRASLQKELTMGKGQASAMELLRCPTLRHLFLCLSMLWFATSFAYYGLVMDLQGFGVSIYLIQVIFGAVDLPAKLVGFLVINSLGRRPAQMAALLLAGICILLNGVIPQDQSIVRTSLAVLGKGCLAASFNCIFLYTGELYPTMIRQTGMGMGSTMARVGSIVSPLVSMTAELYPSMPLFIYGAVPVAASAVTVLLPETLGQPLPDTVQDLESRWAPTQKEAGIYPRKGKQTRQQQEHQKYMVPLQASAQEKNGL
Procedure: The hOAT1-HEK293, hOAT3-HEK293 and mock cells were cultured in Dulbecco modified Eagle medium (DMEM) containing 10% fetal bovine serum (FBS) and 1% penicillin/streptomycin in an atmosphere of 5% CO2 air at 37 °C. The HEK293 cells were plated on 24-well plates at a density of 5 × 10^5 cells/well. […] Uptake assay was initiated by adding 1 mL of the transporter buffer containing Y101, M8, ETV or probe substrate. Following incubation with gentle shaking, the uptake was terminated at designated time by removing the transporter buffer and washing cells three times with 1 mL of ice-cold HBSS. Next, substrates of Y101, M8, ETV, PAH and ES in cell monolayer were released by lysing the cells with 0.3 mL of 0.1% Triton X-100 for 2 h and determined by liquid chromatography–tandem mass spectrometry (LC–MS/MS). In the time-course uptake assay, Y101 (2.0 µM) and M8 (10 µM) in the presence or absence of PRO (100 µM) were measured in hOAT1-HEK293, hOAT3-HEK293 and mock cells. The concentration-dependent uptake of M8 was determined in hOAT3-HEK293 cells, and incubation time (5 min) was optimized. The uptake of M8 (10 µM) with or without ETV was examined in hOAT3-HEK293 cells. The uptake of ETV (10 µM) with or without Y101 or M8 was also measured in hOAT1-HEK293 and hOAT3-HEK293 cells, respectively. Furthermore, PAH and ES at concentrations of 10 µM were used as positive control in hOAT1-HEK293 and hOAT3-HEK293 cells, respectively. Protein concentrations were measured by the bicinchoninic acid procedure (Solarbio, Beijing, China) using bovine serum albumin as the standard.
Biological samples were prepared as previously described. Aliquots (50 µL) of urine, plasma, kidney homogenates, or cell lysates were individually mixed with 150 µL methanol and 50 µL working solution of internal standard (acetaminophen or bestatin), followed by vortexing for 1 min and centrifuging at 13,800 g for 10 min. […] The resulting supernatant (1 µL) was subjected to LC-MS/MS for the assessment of Y101, M8, M9 and ETV, respectively. […] The concentrations of ETV, Y101, M8 and M9 were determined by an AB QTRAP 5500 LC–MS/MS System (Foster City, CA, USA) as previously described. […] Analyst1.5.2 software was used for data processing and analysis.

[1] = set-up: method as in PMID 32277364; settings: healthy Chinese subjects, oral administration of Y101; cited from earlier work
[2] = Pharmacokinetic DDI study in rats, intravenous Y101 and/or ETV; format: in vivo, Sprague–Dawley (SD) rats; settings: Sprague-Dawley, rat, plasma; for AUC(0-inf) / AUC(0-t) / C0 / Vd / half-life / Cmax / Tmax: n = 4; for clearance: n = 4, read-out: CLp (plasma clearance) (converted)
Procedure: Additionally, DDI between Y101 and ETV was investigated by monitoring time-course plasma Y101 in rats with surgery as described above. Animals were randomly placed into three groups (n = 4): (1) Y101 alone (25 mg/kg for intravenous treatment and 60 mg/kg for oral administration); (2) ETV (0.06 mg/kg); and (3) Y101 (25 mg/kg for intravenous treatment and 60 mg/kg for oral administration) + ETV (0.06 mg/kg). ETV was dissolved in saline at concentration of 12 µg/mL. Rats received an oral or intravenous dose of Y101 and/or ETV at volume of 5 mL/kg. The doses used in in vivo pharmacokinetic studies were selected in accordance with therapeutic doses of Y101 and ETV commonly used clinically and in previous studies.
Following administration, serial blood samples were collected through jugular vein pre-dose (0 h) and post-dose at 0.033, 0.083, 0.25, 0.5, 1, 1.5, 2, 3, 4, 6, 9, 12, 24 and 30 h in heparinized Eppendorf tubes. The resulting samples were centrifuged at 13,800× g at 4 °C for 5 min to obtain plasma. All plasma samples were stored at −70 °C until analysis.
Biological samples were prepared as previously described.
Non-compartmental analysis with Phenix WinNonlin (version 8.1; Pharsight, Certara Corp, Princeton, NJ) was used to calculate the main pharmacokinetic parameters of ETV, Y101, M8 and M9 for individual rats. The observed values were reported for maximum concentration (Cmax) and time to reach maximum concentration (Tmax), while the area under the plasma concentration–time curve (AUC) was calculated via the default trapezoidal-up, log-trapezoidal-down approach.

[3] = i.v. Y101 25 mg/kg + ETV 0.06 mg/kg

| AUC(0-inf) [2, 3] | AUC(0-t) [2, 3] | half-life [2, 3] | Structure (SMILES) | inhibition of the uptake of ETV in hOAT1-HEK293 cells (hOAT1) | substrate of hOAT1 (uptake in hOAT1-HEK293 vs mock-HEK293 cells) (hOAT1) | renal excretion [1] | C0 [2, 3] | AUC(0-inf) ([2]; i.v. Y101 25 mg/kg alone) | AUC(0-t) ([2]; i.v. Y101 25 mg/kg alone) | Vd [2, 3] | clearance [2, 3] | half-life ([2]; i.v. Y101 25 mg/kg alone) | further results |
| --- | --- | --- | --- | --- | --- | --- | --- | --- | --- | --- | --- | --- | --- |
| 6.76 ng·h/mL | 6.31 ng·h/mL | 76.8 min | C=C1[C@H](CO)[C@@H](O)C[C@@H]1n1cnc2c(=O)[nH]c(N)nc21 [ETV, entecavir] |  |  |  | 19.1 ng/mL |  |  | 16.4 L/kg | 152 mL/min/kg |  | AUC(0-inf) ([2]; i.v. ETV 0.06 mg/kg alone): 9.79 ng·h/mL; AUC(0-t) ([2]; i.v. ETV 0.06 mg/kg alone): 9.21 ng·h/mL; C0 ([2]; i.v. ETV 0.06 mg/kg alone): 26.4 ng/mL; Vd ([2]; i.v. ETV 0.06 mg/kg alone): 11.7 L/kg; half-life ([2]; i.v. ETV 0.06 mg/kg alone): 76.8 min; clearance ([2]; i.v. ETV 0.06 mg/kg alone): 107 mL/min/kg |
| 6150 ng·h/mL | 6100 ng·h/mL | 159 min | CN(C)CCOc1ccc(CC(NC(=O)c2ccccc2)C(=O)O)cc1 (stereo not shown) [M8] | not inhibited | not a substrate of hOAT1 | 27.2 % of the dose |  | 5860 ng·h/mL | 5830 ng·h/mL |  |  | 116 min | Cmax [2, 3]: 2520 ng/mL; Cmax ([2]; i.v. Y101 25 mg/kg alone): 2660 ng/mL; Tmax [2, 3]: 26.3 min; Tmax ([2]; i.v. Y101 25 mg/kg alone): 30 min |

| Structure (SMILES) | AUC(0-inf) [2, 3] | AUC(0-t) [2, 3] | half-life [2, 3] | inhibition of the uptake of ETV in hOAT1-HEK293 cells (hOAT1) | substrate of hOAT1 (uptake in hOAT1-HEK293 vs mock-HEK293 cells) (hOAT1) | renal excretion [1] | C0 [2, 3] | AUC(0-inf) ([2]; i.v. Y101 25 mg/kg alone) | AUC(0-t) ([2]; i.v. Y101 25 mg/kg alone) | Vd [2, 3] | clearance [2, 3] | half-life ([2]; i.v. Y101 25 mg/kg alone) | further results |
| --- | --- | --- | --- | --- | --- | --- | --- | --- | --- | --- | --- | --- | --- |
| CN(C)CCOc1ccc(C[C@H](NC(=O)c2ccccc2)C(=O)N[C@H](CO)Cc2ccccc2)cc1.Cl [Y101, N-[N-benzoyl-O-(2-dimethylaminoethyl)-l-tyrosyl]-l-phenylalaninol hydrochloride] | 1690 ng·h/mL | 1670 ng·h/mL | 39.6 min | not inhibited | not a substrate of hOAT1 or hOAT3 | 2.98 % of the dose | 6280 ng/mL | 2370 ng·h/mL | 2350 ng·h/mL | 15.5 L/kg | 258 mL/min/kg | 40.9 min | C0 ([2]; i.v. Y101 25 mg/kg alone): 10600 ng/mL; Vd ([2]; i.v. Y101 25 mg/kg alone): 10.6 L/kg; clearance ([2]; i.v. Y101 25 mg/kg alone): 178 mL/min/kg |
